Here are results for three compounds from PMC7559125 (Pathogens, 2020).

For orientation: pIC50 means the IC50 on a negative log10 scale, so that one unit is a factor of ten. Read a low pIC50 as a high IC50. One may read the pEC50 as the EC50 on a negative log10 scale, so that one unit is a factor of ten. A low value points to a high EC50.

SMILES strings stand for the structures. pEC50, pIC50: −log10 of the molar value.

Assay [1] has as its system A/Yokohama/40/2016 (wild-type). Description: microbe, parasite or virus in culture. Particulars: Influenza A virus.
The test system of assay [2] is A/Yokohama/59/2016 (wild-type). Description: microbe, parasite or virus in culture. The note with it: Influenza A virus.
Assay [3] has as its system A/Sakai/23/2013 (wild-type). As to the kind of experiment: microbe, parasite or virus in culture. Particulars: Influenza A virus.
For assay [4], the target named is neuraminidase of A/Sakai/23/2013 (wild-type) (Influenza A virus, UniProt W8DXJ8).
In assay [5] the target is neuraminidase of A/Yokohama/40/2016 (wild-type) (Influenza A virus, UniProt A0A0X9QTS2).
The target in assay [6] is neuraminidase of A/Yokohama/59/2016 (wild-type) (Influenza A virus, UniProt A0A0X9QTS2).
Assay [7] deals with A/Yokohama/59/2016 (wild-type). As to the kind of experiment: microbe, parasite or virus in culture. Particulars: Influenza A virus, AX4.
The test system of assay [8] is A/Sakai/23/2013 (wild-type). As to the kind of experiment: microbe, parasite or virus in culture. The note with it: Influenza A virus, AX4.
The test system of assay [9] is A/Yokohama/40/2016 (wild-type). Description: microbe, parasite or virus in culture. The note with it: Influenza A virus, AX4.

As for `O=C1c2c(O)c(=O)ccn2N([C@@H]2c3ccccc3SCc3c2ccc(F)c3F)[C@@H]2COCCN12` [Baloxavir, Baloxavir acid], the pIC50 is 8.21 in assay [1], 7.96 in assay [2] and 8.39 in assay [3].

With `CCC(CC)[C@H](NC(C)=O)[C@@H]1[C@H](O)[C@@H](C(=O)O)C[C@H]1N=C(N)N.O.O.O` [Peramivir, peramivir trihydrate], the figures for the pIC50 in assay [4], in assay [5] and in [6] were 11.00, 10.15 and 10.10, respectively.

For `NC(=O)c1nc(F)c[nH]c1=O` [Favipiravir, favipiravir], the values for the pEC50 in assay [7], in [8] and in assay [9] were 5.06, 5.18 and 5.00, respectively.
